The text below walks through data of patent publication US9642859B2, “Use of capsazepine and analogs thereof to treat cancer” (THE BOARD OF REGENTS OF THE UNIVERSITY OF TEXAS SYSTEM, priority 2012, dated 2017).

The test system of series [1] is voltage-activated calcium channels. The conditions noted are these: cited from earlier work.
In another series the test system is OSCC cell lines. In words: ROS assays by flow cytometry (DCF-DA). The class given is cell-based, human. The conditions noted are these: 30 μM capsazepine, 1 h. On the procedure: FIGS. 1I-1 to 1I-3. Reactive oxygen species (ROS) assays. The level of ROS in OSCC cell lines was examined by flow cytometry using 2,7-dichlorodihydrofluorescein diacetate (DCFH-DA; Sigma). Approximately 3×10^5 cells were plated in 12-well plates. To detect ROS, cells were incubated for 30 min at 37° C. with DCF-DA, washed and then treated for 1 h with 30 μM capsazepine (grey, thick line), 150 μM capsaicin (grey, thin line), 30 μM capsazepine+150 μM capsaicin (black line), or vehicle control (dotted line). The cells were harvested, washed twice, and analyzed by flow cytometry.
FIGS. 1I-4(a)-(b) to 1I-6(a)-(b). Induction of ROS in OSCC cell lines. (a). ROS induction in OSCC cell lines following 1 h treatment with 30 μM CPZ (black line) compared to vehicle control. (b). ROS induction in OSCC cell lines following 1 h treatment with 30 μM CPZ is reversed by NAC co-treatment (black line) as indicated in the shift in their peaks to the left.
ROS levels in OSCC cell lines were examined by flow cytometry using 2,7-dichlorodihydrofluorescein diacetate (DCF-DA; Sigma-Aldrich, St. Louis, Mo.). Cells (3×10^5) were plated in 12-well plates and incubated for 30 min with DCF-DA at 37° C. then treated with 30 μM capsazepine using phenol free media with and without 10 mM NAC. Treated cells were incubated for 1 h at 37° C., harvested, washed twice, and analyzed by FACS.
A general note: Flow cytometry measures light scatter and fluorescence of single cells or particles in a stream.

The nature of series [2]: Liver and kidney function tests of tumor bearing mice. The class given is in vivo. Particulars: 40 μg CPZ intra-tumoral every other day over 14 days. On the procedure:
FIG. 14. Liver and kidney function tests of tumor bearing mice following two week treatment with either vehicle control (Control) or 40 μg CPZ in 40 μl Veh medium (1 μg/μl) injected directly into tumor every other day over 14 days (CPZ).
Treatments. CPZ (5 mg) was diluted in 250 μl of 100% DMSO to yield a final concentration of 20 μg/μl of stock solution. Stock solution (100 m) was subsequently diluted in 7% DMSO in sterile saline generating a final concentration of 1 μg/μl. A total of 40 μg in 40 μl was injected intra-tumorally. Control xenografts were injected intra-tumorally with 40 μl of vehicle control (7% DMSO). Mice were monitored daily for tumor growth, cachexia, and weight loss. Tumor volumes and body weight were recorded every other day. Tumor volumes were calculated by the formula: (4π/3)×(w/2)2×(l/2), where w=width and l=length. Measurements were made using a digital caliper. […]
At the conclusion of the experiment, serum was collected for liver and kidney function analysis. […] Tumors were analyzed histologically using H&E (hematoxylin and eosin) and TUNEL (terminal deoxyribonucleotidyl transferase-mediated dUTP nick end labeling) staining for detection of DNA fragmentation associated with apoptosis, and apoptotic figures were quantified. […]

Another series concerns SCC25 xenografts. In words: OSCC mouse xenograft model, SCC25. The class given is in vivo, athymic nude (nu/nu) mice. An excerpt: Animals. Six week-old female athymic nude (nu/nu) mice were purchased from HARLAN Laboratories (Indianapolis, Ind.) and used in a laminar air-flow cabinet under pathogen-free conditions. They were provided with a 12-h light/dark schedule at controlled temperature and humidity with food and water ad libitum. Mice were allowed to acclimate for at least one week prior to the start of the experiments. All procedures were approved by the UTHSCSA (University of Texas Health Science Center—San Antonio) Institutional Animal Care and Use Committee.
OSCC Mouse Xenograft Model. Mice were injected subcutaneously in the right flank with 2×10^6 HSC3, SCC4, or SCC25 cells in 0.1 ml of sterile phosphate buffered saline (each of these cell lines is published in scientific literature). Four weeks post-inoculation, tumors had grown to an average volume of 110 mm^3. […] The injections were repeated every other day and for a total of at least 14 days.
Treatments. CPZ (5 mg) was diluted in 250 μl of 100% DMSO to yield a final concentration of 20 μg/μl of stock solution. Stock solution (100 m) was subsequently diluted in 7% DMSO in sterile saline generating a final concentration of 1 μg/μl. […] Control xenografts were injected intra-tumorally with 40 μl of vehicle control (7% DMSO). Mice were monitored daily for tumor growth, cachexia, and weight loss. Tumor volumes and body weight were recorded every other day. Tumor volumes were calculated by the formula: (4π/3)×(w/2)2×(l/2), where w=width and l=length. Measurements were made using a digital caliper. At the conclusion of the experiments, mice were anaesthetized with isoflurane and cervical dislocation, blood was collected, and the serum was separated and stored at −80° C. until assayed. Biochemical analysis of serum was performed by the Mouse Metabolic Phenotyping Center (Yale School of Medicine, New Haven, Conn.). Tumors were dissected and placed in 10% neutral buffered formalin (SIGMA, St. Louis, Mo.) and processed for histological analysis.

Series [3] is described as follows: Tolerability observations in tumor bearing mice treated intratumorally. Format: in vivo. On the procedure: Treatments. CPZ (5 mg) was diluted in 250 μl of 100% DMSO to yield a final concentration of 20 μg/μl of stock solution. Stock solution (100 m) was subsequently diluted in 7% DMSO in sterile saline generating a final concentration of 1 μg/μl. A total of 40 μg in 40 μl was injected intra-tumorally. Control xenografts were injected intra-tumorally with 40 μl of vehicle control (7% DMSO). Mice were monitored daily for tumor growth, cachexia, and weight loss. Tumor volumes and body weight were recorded every other day. Tumor volumes were calculated by the formula: (4π/3)×(w/2)2×(l/2), where w=width and l=length. Measurements were made using a digital caliper. At the conclusion of the experiments, mice were anaesthetized with isoflurane and cervical dislocation, blood was collected, and the serum was separated and stored at −80° C. until assayed. Biochemical analysis of serum was performed by the Mouse Metabolic Phenotyping Center (Yale School of Medicine, New Haven, Conn.). Tumors were dissected and placed in 10% neutral buffered formalin (SIGMA, St. Louis, Mo.) and processed for histological analysis.

For series [4] the following is noted: rat model, high intravenous administration dose; cited from earlier work.
For a further series, the system named is HSC3. In words: Additional cell proliferation assay, HSC3. The class given is cell-based, human. The conditions noted are these: HSC3, 24 hour treatment. The text has this:
Observed reductions in cell proliferation in these additional in vitro studies are as follows: SCC4, 40%; HSC3, 50%; SCC25, 80%; Cal27, 15%; MDA231, 56%; and LnCap, 37%.

The next series deals with HSC3 cells. In words: Cell viability assay of HSC3 cells, dose response curve. Format: cell-based. The conditions noted are these: Homo sapiens, HSC-3, HSC3 cells, FIG. 1K. An excerpt: FIG. 1K. Cell viability assay of HSC3 cells treated with increasing concentrations of curcumin; […]

As a reminder, the IC50 is the midpoint of a concentration-inhibition curve. For `Oc1cc2c(cc1O)CN(C(=S)NCCc1ccc(Cl)cc1)CCC2` [CPZ, 2-[2-(4-chlorphenyl)ethylamino-thiocarbonyl]-7,8-dihydroxy-2,3,4,5-tetrahydro-1H-2-benzazepine], the “effect on voltage-activated calcium channels” value in series [1] is given as “Inhibitis”. The “level of ROS” value with OSCC cell lines is on record as “increase in ROS”. Moreover, in series [2], the “liver and kidney function” value was “No negative effects on liver or kidney function were detected”. For the same compound, the “decrease in tumor volume” value with SCC25 xenografts (20 μg CPZ (1 μg/μl) injections over two weeks, FIG. 13) worked out at 57.5%. Besides, in the series on SCC25 xenografts (20 μg CPZ intra-tumoral every other day), the healing of xenografts entry was “Nearly complete healing”. Further, in the series on SCC25 xenografts (20 μg CPZ intra-tumoral every other day, two weeks, p<0.05), the tumor volume result is “significant reduction in tumor volume”. Moreover, the body weight entry in series [3] (approximately two-week intra-tumoral CPZ treatment) is recorded as “did not lose weight”. The adjacent healthy tissues result in series [3] (intratumoral injection with CPZ) is on record as “No inflammation, ulceration, necrosis or pain were evident”. In series [4], the hyperthermia entry is recorded as “does not cause hyperthermia”. Besides, the “reduction in cell proliferation” value with HSC3 turned out to be 50%. In the series with HSC3 cells, it took 30 µM to reach half-maximal inhibition (IC50).
